EPA's ToxRefDB 2

How the values were obtained:
mouse [1] = settings: Combined chronic toxicity/carcinogenicity, b6c3f1, Oral, Gavage/Intubation, dose end: 103 week, group: systemic
rat [2] = settings: Combined chronic toxicity/carcinogenicity; fischer; Oral; Gavage/Intubation; dose end: 103 week; group: systemic; systemic / hematology / erythrocyte (rbc) count differential / erythrocyte (rbc) + systemic / hematology / hematocrit (hct) / hematocrit (…
mouse [3] = settings: Subchronic oral toxicity in rodents, b6c3f1, Gavage/Intubation, dose end: 13 week, group: systemic
rat [4] = settings: Subchronic oral toxicity in rodents, Fischer, Gavage/Intubation, dose end: 13 week, group: systemic, systemic / hematology / erythrocyte (rbc) count differential / erythrocyte (rbc) + systemic / hematology / hematocrit (hct) / hematocrit (…
mouse [5] = settings: Combined chronic toxicity/carcinogenicity; other; Oral; Feed; dose end: 365 day; group: systemic; systemic / in life observation / body weight / body weight
rat [6] = settings: Combined chronic toxicity/carcinogenicity; fischer; Oral; Feed; dose end: 365 day; group: systemic; systemic / pathology microscopic / liver / hepatocellular carcinoma + systemic / pathology microscopic / testes / adenoma + systemic / in …
dog [7] = settings: Sub-acute repeat dose toxicity, beagle, Oral, Gavage/Intubation, dose end: 28 day, group: systemic
dog [8] = settings: Chronic toxicity, beagle, Oral, Gavage/Intubation, dose end: 182 day, group: systemic, systemic / in life observation / clinical signs / defecation (diarrhea) + systemic / in life observation / clinical signs / feces
mouse [9] = settings: Sub-acute repeat dose toxicity, Oral, Gavage/Intubation, dose end: 28 day
mouse [10] = settings: Chronic toxicity, Oral, Gavage/Intubation, dose end: 182 day
mouse [11] = settings: Sub-acute repeat dose toxicity, Oral, Gavage/Intubation, dose end: 14 day, group: systemic
dog [12] = settings: Chronic toxicity, beagle, Oral, Gavage/Intubation, dose end: 182 day, group: systemic
dog [13] = settings: Sub-acute repeat dose toxicity, beagle, Oral, Gavage/Intubation, dose end: 14 day, group: systemic
mouse [14] = settings: Sub-acute repeat dose toxicity, Oral, Gavage/Intubation, dose end: 28 day; remark: listed apart in the source
rat [15] = settings: Subchronic oral toxicity in rodents, wistar, Feed, dose end: 13 week, group: systemic
dog [16] = settings: Chronic toxicity, beagle, Oral, Feed, dose end: 52 week, group: systemic, systemic / in life observation / clinical signs / feces
rat [17] = settings: Combined chronic toxicity/carcinogenicity, fischer, Oral, Feed, dose end: 2 year, group: systemic
rat [18] = settings: Combined chronic toxicity/carcinogenicity, fischer, Oral, Feed, dose end: 24 month
mouse [19] = settings: Carcinogenicity, b6c3f1, Oral, Feed, dose end: 18 month
rat [20] = settings: Combined chronic toxicity/carcinogenicity, fischer, Oral, Feed, dose end: 24 month; remark: listed apart in the source
rat [21] = settings: Developmental neurotoxicity ChE Inhibition study; sprague dawley; Oral; Gavage/Intubation; dose end: 21 PND; group: cannot be grouped; cholinesterase / cholinesterase / cholinesterase / erythrocyte cholinesterase (che)
hamster = settings: Subchronic oral toxicity in rodents, golden syrian, Feed, dose end: 13 week, group: systemic
rat [22] = settings: Subchronic oral toxicity in rodents, sprague dawley, Feed, dose end: 13 week, group: systemic
mouse [23] = settings: Subchronic oral toxicity in rodents, b6c3f1, Feed, dose end: 13 week, group: systemic
[24] = systemic / pathology microscopic / blood / lymphoma malignant + systemic / pathology microscopic / kidney / hemosiderosis + systemic / …
[25] = systemic / pathology microscopic / blood / lymphoma malignant + systemic / pathology microscopic / liver / hematopoietic cell proliferation…
[26] = systemic / hematology / erythrocyte (rbc) count differential / erythrocyte (rbc) + systemic / hematology / hematocrit (hct) / hematocrit (…
[27] = systemic / hematology / hematocrit (hct) / hematocrit (hct) + systemic / pathology microscopic / spleen / hematopoietic cell proliferation…
[28] = systemic / clinical chemistry / cholesterol / cholesterol + systemic / clinical chemistry / triglycerides / triglycerides + systemic / …
[29] = systemic / in life observation / clinical signs / defecation (diarrhea) + systemic / in life observation / clinical signs / delayed sexual …
[30] = group: maternal, reproductive / reproductive performance / estrous cycle / absent corpora lutea
[31] = group: systemic, systemic / clinical chemistry / alkaline phosphatase (alp/alk) / alkaline phosphatase (alp/alk) + systemic / hematology / mean corpuscular (…
[32] = group: systemic, systemic / hematology / mean corpuscular (cell) volume (mcv) / mean corpuscular (cell) volume (mcv) + systemic / hematology / mean …
[33] = group: reproductive, reproductive / reproductive performance / estrous cycle / absent corpora lutea
[34] = group: systemic, systemic / hematology / erythrocyte (rbc) count differential / erythrocyte (rbc) + systemic / in life observation / body weight / body …
[35] = systemic / clinical chemistry / albumin / albumin + systemic / clinical chemistry / protein / protein + systemic / hematology / erythrocyte…
[36] = systemic / in life observation / body weight / body weight
[37] = systemic / in life observation / clinical signs / abnormal feces
[38] = systemic / in life observation / clinical signs / abnormal feces + systemic / in life observation / body weight / body weight + systemic / …
[39] = systemic / in life observation / body weight / body weight + systemic / in life observation / clinical signs / defecation (diarrhea) + …
[40] = systemic / pathology gross / oral mucosa / discolored
[41] = systemic / clinical chemistry / sodium / sodium
[42] = systemic / hematology / blood clotting / blood clotting - prothrombin time + systemic / hematology / blood clotting / blood clotting - …
[43] = discoloration + systemic / hematology / blood clotting / blood clotting - activated…
[44] = systemic / clinical chemistry / urea nitrogen / urea nitrogen
[45] = systemic / hematology / platelet / platelet + systemic / in life observation / body weight / body weight + systemic / in life observation / …
[46] = group: cholinesterase, cholinesterase / cholinesterase / cholinesterase / erythrocyte cholinesterase (che)
[47] = group: cholinesterase, cholinesterase / cholinesterase / cholinesterase / plasma cholinesterase (che)
[48] = group: cholinesterase, cholinesterase / cholinesterase / cholinesterase / plasma cholinesterase (che) + cholinesterase / cholinesterase / cholinesterase / brain …
[49] = group: systemic, systemic / in life observation / food consumption / food consumption + systemic / pathology microscopic / parathyroid gland / hyperplasia
[50] = group: cholinesterase, cholinesterase / cholinesterase / cholinesterase / erythrocyte cholinesterase (che) + cholinesterase / cholinesterase / cholinesterase / …
[51] = group: systemic, systemic / in life observation / body weight / body weight + systemic / in life observation / food consumption / food consumption + systemic…
[52] = group: systemic, systemic / pathology microscopic / parathyroid gland / hyperplasia
[53] = group: systemic, systemic / pathology microscopic / parathyroid gland / hyperplasia + systemic / hematology / erythrocyte (rbc) count differential / …
[54] = systemic / in life observation / body weight / body weight + systemic / in life observation / body weight / body weight gain + systemic / …
[55] = systemic / pathology microscopic / liver / cytoplasmic alteration + systemic / clinical chemistry / cholesterol / cholesterol + systemic / …
[56] = systemic / clinical chemistry / alkaline phosphatase (alp/alk) / alkaline phosphatase (alp/alk) + systemic / organ weight / kidney / …

## Cl.Nc1ccc(Cl)cc1 [4-Chloroaniline hydrochloride]
Mouse [1]; [24]
  LOAEL: > 30 mg/kg/day
  NOAEL: ≥ 30 mg/kg/day
Mouse [1]; [25]
  LEL: 3 mg/kg/day
  NEL: < 3 mg/kg/day
Rat [2]
  LEL: 2 mg/kg/day
  LOAEL: 6 mg/kg/day
  NEL: < 2 mg/kg/day
  NOAEL: 2 mg/kg/day
Mouse [3]; [26]
  LOAEL: 15 mg/kg/day
  NOAEL: 7.5 mg/kg/day
Mouse [3]; [27]
  LEL: 7.5 mg/kg/day
  NEL: < 7.5 mg/kg/day
Rat [4]
  LEL: 5 mg/kg/day
  LOAEL: > 80 mg/kg/day
  NEL: < 5 mg/kg/day
  NOAEL: ≥ 80 mg/kg/day

## NC(=O)CCCCC(N)=O [Adipamide]
Mouse [5]
  LEL: 3600 mg/kg/day
  LOAEL: > 3600 mg/kg/day
  NEL: < 3600 mg/kg/day
  NOAEL: ≥ 3600 mg/kg/day
Rat [6]
  LEL: 1200 mg/kg/day
  LOAEL: > 1200 mg/kg/day
  NEL: < 1200 mg/kg/day
  NOAEL: ≥ 1200 mg/kg/day

## CNC(=O)c1ccccc1Sc1ccc2c(/C=C/c3ccccn3)n[nH]c2c1 [Axitinib]
Dog [7]; [28]
  LOAEL: > 50 mg/kg/day
  NOAEL: ≥ 50 mg/kg/day
Dog [7]; [29]
  LEL: 5 mg/kg/day
  NEL: < 5 mg/kg/day
Dog [8]
  LEL: 1 mg/kg/day
  LOAEL: > 5 mg/kg/day
  NEL: < 1 mg/kg/day
  NOAEL: ≥ 5 mg/kg/day
Mouse [9]; [30]
  LEL: 125 mg/kg/day
  LOAEL: > 125 mg/kg/day
  NEL: 15 mg/kg/day
  NOAEL: ≥ 125 mg/kg/day
Mouse [9]; [31]
  LOAEL: > 125 mg/kg/day
  NEL: 5 mg/kg/day
  NOAEL: ≥ 125 mg/kg/day
Mouse [9]; [32]
  LEL: 15 mg/kg/day
Mouse [10]; [33]
  LEL: 5 mg/kg/day
  LOAEL: > 125 mg/kg/day
  NEL: < 5 mg/kg/day
  NOAEL: ≥ 125 mg/kg/day
Mouse [10]; [34]
  LOAEL: > 125 mg/kg/day
  NEL: 5 mg/kg/day
  NOAEL: ≥ 125 mg/kg/day
Mouse [10]; group: systemic, systemic / hematology / erythrocyte (rbc) count differential / erythrocyte (rbc) + systemic / in life observation / clinical signs / poor …
  LEL: 15 mg/kg/day
Mouse [11]; [35]
  LOAEL: > 250 mg/kg/day
  NOAEL: ≥ 250 mg/kg/day
Mouse [11]; [36]
  LEL: 25 mg/kg/day
  NEL: < 25 mg/kg/day
Dog [12]; [37]
  LEL: 1 mg/kg/day
  NEL: < 1 mg/kg/day
Dog [12]; [38]
  LOAEL: > 5 mg/kg/day
  NOAEL: ≥ 5 mg/kg/day
Dog [13]; [39]
  LOAEL: > 150 mg/kg/day
  NOAEL: ≥ 150 mg/kg/day
Dog [13]; [40]
  LEL: 12 mg/kg/day
  NEL: < 12 mg/kg/day
Mouse [14]; [30]
  LEL: 125 mg/kg/day
  LOAEL: > 125 mg/kg/day
  NEL: 15 mg/kg/day
  NOAEL: ≥ 125 mg/kg/day
Mouse [14]; [31]
  LOAEL: > 125 mg/kg/day
  NEL: 5 mg/kg/day
  NOAEL: ≥ 125 mg/kg/day
Mouse [14]; [32]
  LEL: 15 mg/kg/day

## CC(C)N1C(=O)c2ccccc2NS1(=O)=O [Bentazon]
Rat [15]; [41]
  LEL: 25.3 mg/kg/day
  NEL: < 25.3 mg/kg/day
Rat [15]; [42]
  LOAEL: 243 mg/kg/day
  NOAEL: 77.8 mg/kg/day
Dog [16]; discoloration
  LOAEL: 13.1 mg/kg/day
Dog [16]; [43]
  NEL: 3.2 mg/kg/day
  NOAEL: 3.2 mg/kg/day
Dog [16]; discoloration + systemic / in life observation / clinical signs / [other]
  LEL: 13.1 mg/kg/day
Rat [17]; [44]
  LEL: 9 mg/kg/day
  NEL: < 9 mg/kg/day
Rat [17]; [45]
  LOAEL: 180 mg/kg/day
  NOAEL: 35 mg/kg/day

## CCOC(=O)CC(SP(=S)(OC)OC)C(=O)OCC (stereo not given) [Malathion]
Rat [18]; [46]
  LEL: 5 mg/kg/day
  NEL: < 5 mg/kg/day
Rat [18]; [47]
  LOAEL: 29 mg/kg/day
Rat [18]; [48]
  NOAEL: 4 mg/kg/day
Rat [18]; [32]
  LOAEL: 359 mg/kg/day
  NOAEL: 29 mg/kg/day
Rat [18]; [49]
  LEL: 4 mg/kg/day
  NEL: < 4 mg/kg/day
Mouse [19]; [50]
  LEL: 143 mg/kg/day
  LOAEL: 143 mg/kg/day
  NEL: 17.4 mg/kg/day
  NOAEL: 17.4 mg/kg/day
Mouse [19]; [51]
  LEL: 1480 mg/kg/day
  LOAEL: 1480 mg/kg/day
  NEL: 143 mg/kg/day
  NOAEL: 143 mg/kg/day
Rat [20]; [47]
  LOAEL: 29 mg/kg/day
Rat [20]; [48]
  NEL: 4 mg/kg/day
  NOAEL: 4 mg/kg/day
Rat [20]; group: cholinesterase, cholinesterase / cholinesterase / cholinesterase / plasma cholinesterase (che) + cholinesterase / cholinesterase / cholinesterase / …
  LEL: 29 mg/kg/day
Rat [20]; [52]
  LEL: 4 mg/kg/day
  NEL: < 4 mg/kg/day
Rat [20]; [53]
  LOAEL: > 739 mg/kg/day
  NOAEL: ≥ 739 mg/kg/day
Rat [21]
  LEL: 5 mg/kg/day
  LOAEL: 5 mg/kg/day
  NEL: < 5 mg/kg/day
  NOAEL: < 5 mg/kg/day

## Cc1cccc(Nc2cc(Cl)nc(SCC(=O)O)n2)c1C [Pirinixic acid]
hamster; [54]
  LOAEL: 0.7 mg/kg/day
  NOAEL: 0.4 mg/kg/day
hamster; [55]
  LEL: 0.4 mg/kg/day
  NEL: < 0.4 mg/kg/day
Rat [22]; [56]
  LEL: 0.3 mg/kg/day
  NEL: < 0.3 mg/kg/day
  NOAEL: 0.6 mg/kg/day
Rat [22]; systemic / pathology microscopic / liver / cytoplasmic alteration + systemic / in life observation / body weight / body weight + systemic / …
  LOAEL: 3 mg/kg/day
Mouse [23]; [54]
  LOAEL: 22 mg/kg/day
  NOAEL: 12 mg/kg/day
Mouse [23]; [55]
  LEL: 0.9 mg/kg/day
  NEL: < 0.9 mg/kg/day
